Measured values from patent publication US20090209589A1, “N-[(PYRIDIN-2-YL) METHOXY] HETROCYCLYL CARBOXAMIDE DERIVATIVES AND RELATED COMPOUNDS AS FUNGICIDES” (Bayer Cropscience SA, priority 2006, published 2009).

How the values were obtained:
Alternaria alternata = assay: Cell test on Alternaria alternata; format: cell-based; conditions: under similar conditions (2 ppm, OD at 620 nm after 5 days)
Method: The growth of Alternaria alternata is performed on PDA medium at 20° C. under black light during 14 days. The PDA medium is prepared by mixing 39 grams of PDA (Merck) in 1 liter of demineralized water.
The medium is sterilized by autoclave 15 minutes at 121° C. After 14 days of growth, the spores of Alternaria alternata are recovered in sterilized water and the concentration of spores adjusted at 10^6 spores per ml.
The compounds is solubilized in DMSO and added to sterile liquid glucose/mycopeptone medium (14.6 g/l of D-glucose, 7.1 g/l of mycological peptone (Oxoid) and 1.4 g/l of yeast extract (Merck)) at a concentration of 2 ppm. The medium is inoculated with the spore suspension at a concentration of 10^5 spores per ml.
The efficacy of the compounds is assessed by OD measurement at 620 nm after 5 days at 20° C. in comparison with a control.

Pyrenophora teres = assay: In vivo test on Pyrenophora teres (barley net blotch); conditions: barley plants, preventive spray, dose of 330 ppm, grading 12 days after contamination
Method: The active ingredients tested are prepared by homogenization in a mixture of acetone/tween/DMSO, then diluted with water to obtain the desired active material concentration.
Barley plants (Express variety), sown on a 50/50 peat soil-pozzolana substrate in starter cups and grown at 12° C., are treated at the 1-leaf stage (10 cm tall) by spraying with the active ingredient prepared as described above. Plants, used as controls, are treated with the mixture of acetone/tween/DMSO/water not containing the active material.
After 24 hours, the plants are contaminated by spraying them with an aqueous suspension of Pyrenophora teres spores (12,000 spores per ml). The spores are collected from a 12-day-old culture. The contaminated barley plants are incubated for 24 hours at about 20° C. and at 100% relative humidity, and then for 12 days at 80% relative humidity.
Grading is carried out 12 days after the contamination, in comparison with the control plants.

| Structure (SMILES) | activity (Alternaria alternata) | protection (Pyrenophora teres) |
| --- | --- | --- |
| O=C(NCCc1ccccn1)c1nccc(-n2ccnc2)c1O [3-hydroxy-4-(1H-imidazol-1-yl)-N-(2-pyridin-2-ylethyl)pyridine-2-carboxamide] | did not show any activity | – |
| O=C(NOCc1ncc(C(F)(F)F)cc1Cl)c1c(Cl)cccc1Cl [2,6-dichloro-N-{[3-chloro-5-(trifluoromethyl)pyridin-2-yl]methoxy}benzamide] | did not show any activity | – |
| Cc1ccsc1C(=O)NOCc1ncc(C(F)(F)F)cc1Cl [Compound C-1, N-{[3-chloro-5-(trifluoromethyl)pyridin-2-yl]methoxy}-3-methylthiophene-2-carboxamide] | – | at least 70% |
| O=C(NOCc1ncc(C(F)(F)F)cc1Cl)c1c(F)cccc1F [N-{[3-chloro-5-(trifluoromethyl)pyridin-2-yl]methoxy}-2,6-difluorobenzamide] | did not show any activity | – |
